Reference: article PMC8647499, “Preclinical evaluation of strasseriolides A–D, potent antiplasmodial macrolides isolated from Strasseria geniculata CF-247,251” (Malaria Journal, 2021)
Where “and” joins values, the source holds several entries; their conditions need not be identical. Equal entries are not always repeated.

What was measured:
mice = assay: In vivo toxicity in mice after i.v. injection; conditions: mouse, in vivo, iv, 25 mg/kg
Procedure: (§1) Three Balb/C mice (6–8 weeks old) were intravenously injected with 25 mg/kg of strasseriolide D dissolved in 200 µL of vehicle (0.5%HPMC, 0.5% Tween 80 and 0.5% Benzyl alcohol in water). Blood samples were collected by pricking the […] on the leg of each mouse at time points 1.5 (T 1.5 h), 5 (T 5 h) and 24 h (T 24 h). From the harvested blood, 50 µL plasma were prepared for all the samples and stored at -80 °C until needed. A previously developed LC–MS–MS method (see supporting information) was used to determine the plasma concentration of strasseriolide D as described below.
(§2) Similar sample preparation and LC–MS–MS analysis were respectively performed for mice intravenously injected with strasseriolides A and C as test compounds and mice blood samples collected at 30 min (T 30 M), 2 h (T 2 h), 6 h (T 6 h) and 24 h (T 24 h). […] For strasseriolides A, B and C as test compounds; strasseriolides C, D and B were respectively used as internal standards. After LC–MS–MS analysis, the plasma concentration of compound vs. time data was determined for each strasseriolide.
Animals were observed individually at 15, 30 and 60 min after dosing and periodically during the first 24 h for any clinical signs of toxicity or mortality. The toxicity evaluation was carried out by observing behaviour parameters, including the Grimace scale parameters. The mice were sacrificed, and the main organs were examined by visual inspection during autopsy.

[1] = Quantification of compounds in mice plasma by LC-MS-MS and PK parameters after i.v. injection; assay type: in vivo; conditions: mouse, in vivo, iv, 25 mg/kg
Procedure: as §1
Ten millimolar (10 mM) DMSO stocks of strasseriolide D (the test compound) and strasseriolide A (used as internal standard,) were prepared. From the strasseriolide D stock, a 59.7 µM (27,000 ppb) working concentration was made in DMSO and an aliquot of this was serially diluted (½) in reconstitution solution (1:1 of acetonitrile: H2O with 0.1% formic acid) to create a six-point calibration curve in triplicate. Three different quality control (QC) concentrations of strasseriolide D at 59.7, 0.74, and 0.25 µM (i.e. 27,000 ppb, 333 ppb and 111 ppb) were also prepared in duplicate. From the strasseriolide A (internal standard) stock, a 6.2 µM (2700 ppb) working concentration was prepared in DMSO.
Blank mouse plasma (prepared from non-injected mouse) was retrieved from the freezer (− 80 °C) and kept on ice to thaw. The sample was vortexed adequately and 15 µL aliquots transferred into 0.7 mL Eppendorf tubes after which 35 µL of Milli-Q water were added and vortexed. Triplicate sets of the diluted plasma were then respectively spiked with 2 uL of each concentration of the calibration curves of strasseriolide D. Another triplicate set of the diluted plasma was spiked with 2 µL of each concentration of the standard QC solutions. All the above samples were also spiked with 2 µL of strasseriolide A (the internal standard)). To serve as blank samples, a fresh triplicate set of diluted plasma were spiked with 4 µL of DMSO. Non-matrix samples were also prepared by spiking 100 µL aliquots of reconstitution solution with 2 µL of the standard QC solutions and 2 µL of internal standard.
Fifteen microlitres (15 µL) plasma from the various time points of the strasseriolide D-injected mice, were respectively transferred into 0.7 mL Eppendorf tubes. To each sample, 37 µL of Milli-Q water were added, vortexed and spiked with 2 µL of strasseriolide A (internal standard). Two hundred microlitres (200 µL) of ice-cold acetonitrile were added to all of the matrix (plasma-containing) samples and centrifuged at 13,300 rpm for 15 min at 4 °C. Subsequently, 180 µL aliquots were carefully transferred (without disturbing the protein precipitate) from each tube into clean HPLC vials and evaporated to dryness in an EZ2 Genevac at room temperature. The dried samples were then reconstituted in 40 µL of reconstitution solution by vortexing. The samples were placed in an auto-sampler drawer for LC–MS–MS analysis and quantification of strasseriolide D (the test compound) in mice plasma.
as §2
116 Table S2. QC table used to calculate the precision and accuracy of the method.
Compound Expected No. Experimental STD % %
conc. in values mean conc. deviation CV Accuracy
118 (5) The mean recovery rate for the test compound (strasseriolide B) – this was calculated
119 to be 29 % by comparing the plasma QC peak area ratios at the established retention time […]

[2] = test system: transgenic P. berghei line 676m1cl1 (PbGFP-Luccon), ANKA strain; assay: In vivo efficacy in P. berghei infected mice (luciferase activity); set-up: species or system Plasmodium berghei in Swiss Webster female mice; conditions: for Parasitaemia (Luminescence arbitrary units), Average ± SD: 4 days from 48 h post-infection; for in vivo activity (in words): strasseriolide D 22 mg/kg i.p. (p < 0.01 vs. vehicle), strasseriolide C 50 mg/kg i.p. (not statistically significant); for parasitaemia level lower compared to controls treated with vehicle: strasseriolide D 22 mg/kg i.p., strasseriolide C 50 mg/kg i.p., 4 days
Procedure: In vivo efficacy experiments were performed at the Anti-infectives Screening Core Services facility of the New York University School of Medicine. The transgenic P. berghei line 676m1cl1 parasite (PbGFP-Luccon) expressing the fusion GFP (mutant 3) and firefly luciferase (LucIAV) proteins generated in the reference clone of ANKA strain cl15cy1 was used. Swiss Webster female mice were infected with transgenic P. berghei line 676m1cl1 (PbGFP-Luccon) ANKA-infected 10³ red blood cells. Treatment was then started 48 h post-parasite infection by i.p. dosage of 22 mg/kg of strasseriolide D and 50 mg/kg of strasseriolide C. Vehicle only (PBS 2% methylcellulose, 0.5% Tween 80) and 20 mg/kg chloroquine were used as negative and positive controls. The infected mice were treated for four days, after which luciferase activity of the parasites was quantified 5 to 10 min after i.p. injection of 150 mg/kg D-Luciferin Potassium-salt (Goldbio) dissolved in PBS using an IVIS® Lumina II imager on the fifth day.
The Genedata Screener online application (Genedata AG, Basel, Switzerland) was used to compute IC50 values. The Smart Fit strategy with Hill model was selected as the choice for curve fitting. Where applicable, data are presented as mean ± standard deviation (SD). In Fig. 3, the significant differences between the vehicle controls and test compounds were calculated by the Student’s t test.

[3] = Balb/C, Calc. Conc. in plasma, individual mice
[4] = Balb/C, T1/2 (apparent terminal elimination half-life)

| SMILES | in vivo toxicity / mortality in mice (mice; Balb/C, 24 h) | in vivo toxicity / mortality in mice (mice) | AUC 0-t/0-inf_obs ([1]; Balb/C) | AUC(0-inf) ([1]; Balb/C) | C0 ([1]; Balb/C) | Clast_obs/Cmax ([1]; Balb/C) | Cmax ([1]; Balb/C) | MRT ([1]; Balb/C) | MRT inf ([1]; Balb/C) | Tmax ([1]; Balb/C) | Vss_obs ([1]; Balb/C) | Vz_obs (plasma distribution volume) ([1]; Balb/C) | k el ([1]; Balb/C) | AUC(0-t) ([1]; Balb/C, AUC 0-t) | AUC(0-t) ([1]; Balb/C, AUC0−t) | concentration at 24 h ([1]; Balb/C, Ave. Conc. in plasma) | concentration at 24 h [1, 3] | concentration at 24 h ([1]; Balb/C, Plasma Conc. @T24 h) | half-life [1, 4] | half-life ([1]; Balb/C, t1/2) | further results |
| --- | --- | --- | --- | --- | --- | --- | --- | --- | --- | --- | --- | --- | --- | --- | --- | --- | --- | --- | --- | --- | --- |
| C/C1=C\[C@H](C)C(=O)C[C@@H](O)/C(C)=C/[C@H](C)C[C@@H](C)CC[C@@H]([C@@H](C)C(=O)O)OC(=O)[C@@H](C)C1 [Strasseriolide C, strasseriolide C] | survived until 24 h post-i.v. injection | non-toxic | 0.9595 | 359 ng·h/mL and 0.798 µM·h | 203 ng/mL and 452 nM | 0.01432 | 111 ng/mL and 246 nM | 4.7 h | 4.71 h | 0.5 h | 0.3281 (mg/kg)/(ng/ml) | 636.8 L/kg | 3.04e-05 s⁻¹ | 345 ng·h/mL and 0.766 µM·h | 0.766 µM·h | 3.54 nM | 2.04 ng/mL and 4.53 nM | 3.5 ± 0.9 nM | 6.3 h | 6.34 h | concentration at 0.5 h ([1]; Balb/C, Ave. Conc. in plasma): 246 nM; concentration at 2 h ([1]; Balb/C, Ave. Conc. in plasma): 40 nM; concentration at 6 h ([1]; Balb/C, Ave. Conc. in plasma): 24 nM; concentration at 0.5 h [1, 3]: 122 ng/mL and 271 nM; concentration at 2 h [1, 3]: 20.7 ng/mL and 46 nM; concentration at 6 h [1, 3]: 11.4 ng/mL and 23.1 nM; Cl_obs [1]: 0.06959 (mg/kg)/(ng/ml)/h; Parasitaemia (Luminescence arbitrary units), Average ± SD ([2]; Table S7/Fig. 3A experiment: strasseriolide C 50 mg/kg i.p., chloroquine 20 mg/kg, read day 5, four replicates): 3.66 × 10^6 ± 2.23 × 10^6 Luminescence arbitrary units; in vivo activity (in words) [2]: moderate in vivo activity; parasitaemia level lower compared to controls treated with vehicle [2]: 30% |
| C/C1=C\[C@H](C)[C@@H](O)C[C@@H](O)/C(C)=C/[C@H](C)C[C@@H](C)CC[C@@H]([C@@H](C)C(=O)O)OC(=O)[C@@H](C)C1 [Strasseriolide D, strasseriolide D] | survived until 24 h post-i.v. injection | non-toxic | 0.8996 | 5050 ng·h/mL and 11.2 µM·h | 929 ng/mL and 2.06 µM | 0.08582 | 564 ng/mL and 1.25 µM | 8 h | 8.02 h | 1.5 h | 0.03969 (mg/kg)/(ng/ml) | 51.9 L/kg | 2.65e-05 s⁻¹ | 10.1 µM·h and 4550 ng·h/mL | 10.1 µM·h | 107 nM | 49.2 ng/mL and 109 nM | 107 ± 5 nM | 7.3 h | 7.27 h | concentration at 1.5 h ([1]; Balb/C, Ave. Conc. in plasma): 1250 nM; concentration at 5 h ([1]; Balb/C, Ave. Conc. in plasma): 389 nM; concentration at 5 h [1, 3]: 168 ng/mL and 431 nM; Cl_obs [1]: 0.004946 (mg/kg)/(ng/ml)/h; Parasitaemia (Luminescence arbitrary units), Average ± SD ([2]; Table S8/Fig. 3B experiment: strasseriolide D 22 mg/kg i.p., chloroquine 20 mg/kg, read day 5, five replicates): 1.25 × 10^5 ± 1.04 × 10^5 Luminescence arbitrary units; Parasitaemia (Luminescence arbitrary units), single replicates ([2]; Table S8 experiment: strasseriolide D 22 mg/kg i.p., chloroquine 20 mg/kg, individual mice): 2.56 × 10^4 Luminescence arbitrary units and 6.93 × 10^3 Luminescence arbitrary units; in vivo activity (in words) [2]: significantly lowered parasitaemia in vivo; parasitaemia level lower compared to controls treated with vehicle [2]: 70% |
